Test results taken from patent US6716865B1, “Benzoxa- and benzthiazoles” (Novartis AG, priority 1999, dated 2004).

What was measured:
[1] = target: T1, CHO cells stably transfected with human steroid sulfatase (CHO/STS) (Homo sapiens, UniProt P08842); experiment: Steroid sulfatase inhibition in the CHO/STS assay; format: cell-based; settings: assay 2, CHO/STS cells, overnight incubation, MUS substrate
T1 construct: expressed in transfected cells; host or cells: CHO cells, stably transfected
T1 sequence (P08842 22-583): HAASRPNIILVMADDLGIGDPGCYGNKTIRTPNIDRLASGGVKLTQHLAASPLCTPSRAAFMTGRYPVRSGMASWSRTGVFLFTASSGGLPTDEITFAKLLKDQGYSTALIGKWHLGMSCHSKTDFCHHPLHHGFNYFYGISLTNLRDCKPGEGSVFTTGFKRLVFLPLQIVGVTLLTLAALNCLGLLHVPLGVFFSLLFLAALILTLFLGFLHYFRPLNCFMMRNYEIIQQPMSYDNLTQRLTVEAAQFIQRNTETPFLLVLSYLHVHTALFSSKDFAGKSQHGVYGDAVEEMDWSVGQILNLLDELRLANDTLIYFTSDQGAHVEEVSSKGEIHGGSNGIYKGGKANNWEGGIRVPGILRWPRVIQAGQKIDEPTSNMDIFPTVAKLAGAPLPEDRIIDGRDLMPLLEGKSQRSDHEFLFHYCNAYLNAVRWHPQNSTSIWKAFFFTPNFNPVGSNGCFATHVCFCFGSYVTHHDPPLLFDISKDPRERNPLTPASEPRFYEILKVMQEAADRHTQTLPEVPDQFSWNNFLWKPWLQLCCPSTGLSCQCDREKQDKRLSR
Protocol: 2. Steroid sulfatase inhibition in the CHO/STS assay:
CHO cells stably transfected with human steroid sulfatase (CHO/STS) are seeded into microtiter plates. After reaching approximately 90% confluency, they are incubated overnight with graded concentrations of test substances. They are then fixed with 4% paraformaldehyde for 10 minutes at room temperature and washed 4 times with PBS before incubation with 100 μl/well 0.5 mM 4-methylumbelliferyl sulfate (MUS) dissolved in 0.1M Tris-HCl, pH 7.5. The enzyme reaction is carried out at 37° C. for one hour. Then 50 μl/well stop solution (1M Tris-HCl, pH 10.4) are added. The enzyme reaction solutions are transferred to white plates (Microfluor, Dynex, Chantilly, Va., USA) and read in a Fluoroskan II fluroescence microtiter plate reader. Reagent blanks are subtracted from all values. For drug testing, the fluorescence units (FU) are divided by the optical density readings after staining cellular protein with sulforhodamine B (OD550) in order to correct for variations in cell number. IC50 values are determined by linear interpolation between two bracketing points. In each assay with inhibitors, estrone 3-O-sulfamate is run as a reference compound, and the IC50 values are normalized to estrone 3-O-sulfamate:
relative IC50=IC50 compound/IC50 estrone 3-O-sulfamate.

[2] = target: T2, Purified human steroid sulfatase (Homo sapiens, UniProt P08842); experiment: Steroid sulfatase inhibition in vitro (p-nitrocatechol sulfate cleavage)
T2 sequence (P08842 22-583): T1 sequence (P08842 22-583)
Protocol: Steroid sulfatase inhibition in vitro:
Purified human steroid sulfatase not only is capable of cleaving steroid sulfates, but also readily cleaves aryl sulfates, such as p-nitrocatechol sulfate which is used herein. Assay mixtures are prepared by consecutively dispensing the following solutions into the wells of flat-bottom microtiter plates:
1) 50 μl inhibitor dilution in buffer (=0.1 M Tris-HCl, ph 7.5, 0.1% Triton X-100);
2) 50 μl substrate (=20 mM p-nitrocatechol sulfate in buffer)
3) 50 μl enzyme dilution to give a final concentration of 75 nM steroid sulfatase.
Plates are incubated at 37° C. for 30 minutes. The assay is stopped by addition of 100 μl of 1 N NaOH, and optical density measured in a microplate reader at 492 nm. […] IC50 values are calculated by nonlinear regression of the concentration/optical density data using the program Grafit (Erithacus Ltd.). Reported values are the result of three determinations.
From the fluorescence intensity data (I) obtained at different concentrations (c) of the test compound, the concentration inhibiting the enzymatic activity at 50% (IC50) is calculated using the equation [formula]
Relative IC50 values (rel IC50) are defined as follows: [formula]

With `NS(=O)(=O)Oc1ccc2nc(C=C3C4CC5CC(C4)CC3C5)oc2c1` [Example 12, sulfamic acid 2-(adamantan-2-ylidenemethyl)benzoxazol-6-yl ester] the “rel IC50 (IC50 compound/IC50 estrone 3-O-sulfamate)” value [1] was 1.25 and the IC50 [2] was ~970 nM.
